The values that follow are results of earlier work, collected in US7947714B2, “Piperidine glycine transporter inhibitors” (Merck, Sharp & Dohme Corp., priority 2005, dated 2011).

The conditions of data set [1]: patients suffering from schizophrenia, poorly responsive to antipsychotic drugs.
For data set [2] the following is noted: mice.
Data set [3] concerns NMDA receptor. To be noted: rat; blockade of GlyT1.
The conditions of data set [4]: high doses, oral, add-on to standard neuroleptic therapy.

With `CNCC(=O)O` [sarcosine], the “effect on positive, negative and cognitive symptoms of schizophrenia” value in data set [1] was “beneficial effect was observed on positive, negative and cognitive symptoms”. With `CN(CCC(Oc1ccc(-c2ccccc2)cc1)c1ccc(F)cc1)CC(=O)O` (stereo not shown) [NFPS, (N-[3-(4′-fluorophenyl)-3-(4′-phenylphenoxy)propyl])sarcosine], the “effect on pre-pulse inhibition (measure of sensory gating)” value in data set [2] is “enhance pre-pulse inhibition”. In data set [3], the “effect on NMDA receptor activity and NMDA receptor-dependent long-term potentiation” value is “potentiates NMDA receptor activity and NMDA receptor-dependent long-term potentiation”.

For the molecule `NCC(=O)O` [glycine], in data set [4], the “effect on symptoms of schizophrenia” value is reported as “improvement of the symptoms”.
